According to the CheMixHub viscosity set:
± gives the uncertainty stated by the source.

Experiment: xn = mol fraction of the nth substance listed

C=CCNCC=C.CC(=O)O + O
101 kPa, x2 = 0.284
Details	viscosity [mPa·s]
298.15 K	80 ± 20
308.15 K	45.7 ± 10
318.15 K	27.6 ± 6.6

CC(O)CN (centres undefined) + O
viscosity [mPa·s]
Details	293.15 K	298.15 K	303.15 K	308.15 K	313.15 K	318.15 K	323.15 K
101 kPa, x1 = 0.01	–	–	–	–	–	0.7225 ± 0.0064	–
101 kPa, x1 = 0.06	–	–	–	–	–	1.155 ± 0.008	–
101 kPa, x1 = 0.5995	–	–	–	–	12.85 ± 0.41	–	–
101.3 kPa, x1 = 0.0126	1.228 ± 0.018	1.03 ± 0.015	0.894 ± 0.014	0.781 ± 0.013	0.682 ± 0.011	–	0.573 ± 0.008
101.3 kPa, x1 = 0.026	1.488 ± 0.023	1.273 ± 0.019	1.122 ± 0.017	0.99 ± 0.014	0.868 ± 0.012	–	0.72 ± 0.01
101.3 kPa, x1 = 0.0565	2.334 ± 0.026	1.985 ± 0.023	1.721 ± 0.019	1.493 ± 0.016	1.299 ± 0.014	–	1.049 ± 0.011

NCCOCCOCCN.O=S(=O)([N-]S(=O)(=O)C(F)(F)F)C(F)(F)F.[Li+] + O
323.15 K, 101 kPa
Details	viscosity [mPa·s]
x1 = 0.0299	1.86 ± 0.13
x1 = 0.0598	4.12 ± 0.23
x1 = 0.1028	8.92 ± 0.36
x1 = 0.1994	22.16 ± 0.68
x1 = 0.2969	37.12 ± 1.1
x1 = 0.3942	52.68 ± 1.5
x1 = 0.4958	66.7 ± 2.3
x1 = 0.6022	79.33 ± 3.4
x1 = 0.6956	89.08 ± 4.3
x1 = 0.8777	103.8 ± 5.9

N[C@@H](CCC(=O)O)C(=O)O + O
viscosity [mPa·s], 101.3 kPa
Details	x1 = 0.000207	x1 = 0.00038	x1 = 0.00043	x1 = 0.000542	x1 = 0.000801	x1 = 0.000855	x1 = 0.0012
293.15 K	1.004 ± 0.035	1.012 ± 0.035	1.007 ± 0.035	1.011 ± 0.035	1.021 ± 0.036	1.019 ± 0.036	1.027 ± 0.036
298.15 K	0.8955 ± 0.031	0.9049 ± 0.032	0.8994 ± 0.032	0.9025 ± 0.032	0.9086 ± 0.032	0.9109 ± 0.032	0.9194 ± 0.032
303.15 K	0.8079 ± 0.028	0.8164 ± 0.029	0.8109 ± 0.028	0.8148 ± 0.029	0.8178 ± 0.029	0.8217 ± 0.029	0.8279 ± 0.029
313.15 K	0.6741 ± 0.024	0.6803 ± 0.024	0.6764 ± 0.024	0.6779 ± 0.024	0.6818 ± 0.024	0.6849 ± 0.024	0.6903 ± 0.024
323.15 K	0.5787 ± 0.02	0.5857 ± 0.021	0.581 ± 0.02	0.5826 ± 0.021	0.5849 ± 0.021	0.5864 ± 0.021	0.5895 ± 0.021
